Measurements: PMC7203682, “Pharmacological Inhibition of MALT1 Protease Leads to a Progressive IPEX-Like Pathology” (Frontiers in Immunology, 2020)
Where two headings read alike, the source gives them in different places.

Legend:
Foxp3+ Treg cells = experiment: Treg frequency and functional markers in mice treated 12 days; format: in vivo, C57BL/6 mice; conditions: 8 mg/kg BID i.p. or 16 mg/kg QD i.p.
Description: Eight-week-old C57BL/6 mice (Charles River France) were treated from day 0 to day 12, either via p.o. […] (mepazine) dosing. Mepazine acetate (Chembridge, San Diego, CA, United States) was solubilized and dosed in PEG200/water (30/70 v/v). […] Some animals were euthanized at the end of the treatment period for analysis of lymphoid organs, while other animals were kept until day 19 to analyze the recovery of Treg cells after cessation of the treatment. […] Blood samples were collected along the treatment and recovery period to monitor changes in Tregs levels over time. Treg frequencies in blood and spleen as well as the expression of CTLA-4, TNFR2, KLRG1, and CD25 on Tregs was assessed by flow cytometry (see below). All animal studies were performed in accordance with the animal experimentation laws and guidelines laid down by the Swiss Federal and Cantonal Authorities. […] Splenocytes were analyzed at scheduled necropsies. […] CTLA-4 expression was assessed intra- and extracellularly.

[1] = blood compound concentrations in mice; format: in vivo, C57BL/6 mice; conditions: mouse; for concentration at 1 h: C57BL/6, blood, ip, read-out: [Mepazine] blood at 1h (peak); for [Mepazine] blood at 15h (trough): BQL: below quantification limit
female Lewis rat = conditions: in vivo, 10 mg/kg
Description: Freund’s incomplete adjuvant (IFA, Difco, Detroit, United States) was mixed with porcine collagen type II (Chondrex, Redmond, United States) using a polytron on ice. The final solution consisted of 200 μg of collagen in 200 μl of IFA. […] of this was injected intradermally (i.d.) into the base of the tail of an isofluorane narcotized female Lewis rat. After 7 days, the isofluorane narcotized animal was boosted i.d. with a fresh batch of the immunization solution in an adjacent site at the base of the tail (100 μg in 100 μl). Paw swelling and body weight were taken three times per week as described below.
There were 10 animals per group for the compound treated groups and n = 9 rats for the vehicle group. […] Hind paws were taken for histological analysis.
There were five animals per group.
All animal studies were performed according to current Swiss animal protection laws, issued by the Cantonal Veterinary Office Basel-Stadt, Switzerland. Body weight of the animals was assessed regularly throughout the study. Mean values of groups were calculated. Scoring of the paw swelling was done on an arbitrary scale of 0–12 per rat, evaluating each hind paw in the front with 0–3 and in the ankle with 0–3, thus obtaining a maximal score of 6 per paw. The paw scores were summed up to obtain a score for each individual animal. The individual sum scores of all the animals were averaged and SEMs were calculated. The scoring system used was: 0 = no detectable sign of inflammation; 1, light swollen region; 2, more obviously swollen region; 3, ankylosis or severely swollen region.
Serum obtained at the end of the study, was diluted 1:10000 and 1: 100000.
Three-μm thick sections were stained with Giemsa and Safranin O (prophylactic setting) or hematoxylin and eosin (therapeutic setting).
Histopathological changes were blindly scored on a scale of 0 (normal) to 3 (severe changes). Following parameters were assessed: inflammatory cell infiltrates, joint damage and proteoglycan loss ([44]).

MALT1 = MALT1 (Canis lupus familiaris, UniProt A0A8I3RR14); experiment: cell-based
Chain of MALT1 (A0A8I3RR14 1-857): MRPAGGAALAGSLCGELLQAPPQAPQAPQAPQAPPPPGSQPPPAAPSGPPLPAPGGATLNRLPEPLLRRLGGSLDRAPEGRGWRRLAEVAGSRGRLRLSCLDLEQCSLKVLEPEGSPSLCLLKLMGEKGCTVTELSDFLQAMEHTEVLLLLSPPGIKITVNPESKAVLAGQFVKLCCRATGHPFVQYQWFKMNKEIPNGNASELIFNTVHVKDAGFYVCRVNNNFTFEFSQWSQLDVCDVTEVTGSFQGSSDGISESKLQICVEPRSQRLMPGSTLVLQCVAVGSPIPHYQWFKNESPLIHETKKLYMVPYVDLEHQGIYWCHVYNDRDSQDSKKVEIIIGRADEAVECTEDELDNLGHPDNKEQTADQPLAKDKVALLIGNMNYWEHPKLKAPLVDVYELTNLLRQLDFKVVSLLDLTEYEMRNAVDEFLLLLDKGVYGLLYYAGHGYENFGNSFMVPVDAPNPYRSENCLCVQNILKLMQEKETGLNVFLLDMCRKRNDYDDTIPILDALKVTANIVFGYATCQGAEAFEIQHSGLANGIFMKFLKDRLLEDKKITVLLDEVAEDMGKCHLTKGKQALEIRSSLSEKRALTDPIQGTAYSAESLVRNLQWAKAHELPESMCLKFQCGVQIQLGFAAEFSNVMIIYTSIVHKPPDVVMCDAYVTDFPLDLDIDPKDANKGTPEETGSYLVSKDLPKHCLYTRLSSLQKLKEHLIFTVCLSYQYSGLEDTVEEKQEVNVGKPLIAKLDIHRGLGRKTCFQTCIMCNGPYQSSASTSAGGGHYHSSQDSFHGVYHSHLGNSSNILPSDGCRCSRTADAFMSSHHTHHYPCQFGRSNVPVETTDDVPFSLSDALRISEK
Description: Human whole blood was obtained from healthy volunteers by venipuncture at the Novartis Basle Health care unit. Blood was pooled into two 50 ml Falcon tubes and filtered using a 100 μm (or 70 μm)-cell strainer. Serial dilutions of compounds (10 mM DMSO stock) were diluted again 1/10 in X-VIVO medium (Lonza Biosciences) and 500 μl of whole blood was mixed with 55 μl of X-VIVO/compound mixes and pre-incubated for 1 h at 37°C with shaking (∼600 rpm). After the pre-incubation time 200 μl of the blood/compound mixes in duplicates were transferred to a new flat bottom plates and PMA (final: 100 ng/ml)/anti-CD28 (final: 300 ng/ml) solution was added. Incubation was performed overnight at 37°C + 5% CO2. Blood plates were spun for 10 min at 470 g and 100 μl of the resulting serum was analyzed for IL-2 levels using MesoScale Discovery kits (MSD), according to the manufacturer’s protocol. […] Similar protocols were implemented for PBMC and blood from rat and dog species.

SMILES	expression of Treg activation markers (Foxp3+ Treg cells)	frequency of Treg cells (Foxp3+ Treg cells)	concentration at 1 h ([1]; 8 mg/kg BID i.p.) [nM]	concentration at 1 h ([1]; 16 mg/kg QD i.p.) [nM]	[Mepazine] blood at 15h (trough) ([1]; 8 mg/kg BID i.p.)	[Mepazine] blood at 15h (trough) ([1]; 16 mg/kg QD i.p.)	histo-pathological score of hind paw: Inflammation (female Lewis rat)	histo-pathological score of hind paw: Joint damage (female Lewis rat)	histo-pathological score of hind paw: Proteoglycan loss (female Lewis rat)	anti-collagen antibody production (female Lewis rat; po)	joint histology scores (female Lewis rat; po)	paw swelling (female Lewis rat; po)	IC50 (MALT1) [nM]
CN1CCCC(CN2c3ccccc3Sc3ccccc32)C1 (stereo not shown) [mepazine]	impacted neither	impacted neither	270	770	BQL	BQL	–	–	–	–	–	–	–
CO[C@@H](C)c1c(NC(=O)Nc2ccnc(C(F)(F)F)c2)cnc2cc(Cl)nn12 [MLT-943]	–	–	–	–	–	–	0	0	0	suppressed	normalized	fully prevented	92
